Key:
Botrytis cinerea = Botrytis cinerea radial growth bioassay with volatile compounds, no direct contact; format: cell-based; settings: for effect on B.c. radial growth: pure compound 6, 30 and 61 μL, four strains, PDA
Experimental: PHBV and PEA microparticle synthesis was done by double emulsion/evaporation. Experimentally, 15 mg of PEA were added to 50 mg/mL PHBV solution in dichloromethane, and then 30 μL of distilled water. This mixture was emulsified with a homogenizer at 35,000 rpm during 30 seconds. To this emulsion, a 5% w/v polyvinyl alcohol was added, and it was homogenized at 35.000 rpm for 30 seconds. The result of this double emulsion was put in an orbital shaker for 12 hours at 100 rpm. Once the solvent evaporated, the microparticles were isolated by centrifugation, washed with distilled water and lyophilized. Subsequently, the assays described below were done.
The experimental model consisted in testing in vitro both the pure and microencapsulated phenylethylalcohol (PEA) volatile compound effect in B.c. The reporting parameter was radial growth and the volatile compound doses were determined with in vitro assays (bioassays). To do this, four different Botrytis strains were exposed to the pure compound, but without direct contact between compound and microorganism.
Bioassays were done in hermetic containers during 6 days at 4° C. (simulating storage conditions). It was previously determined that, for all the strains in study, they were able to cover almost completely the maximum container area (33 mm diameter), in 6 days. The hermetic container was assembled in such a way that there is no physical contact between the evaluated compounds and B.c, in any circumstances.
Radial growth was quantified in three independent experimental groups, which were assayed using potato dextrose agar (PDA) as nutritive support and, after the established culture conditions, initial inoculum growth diameter was determined as 7 mm (disk with actively growing B.c. using PDA as support). The first group was assayed in the container, in absence of a volatile compound and was used as control group (n=4). The second group was assayed challenging the B.c. inoculum with different PEA quantities (6, 30 y 61 μL), separately, with the same culture conditions (n=4). Finally, the third group was assayed like the second group, but with PHBV microencapsulated PEA in defined concentrations (n=2).

Botrytis cinerea spores = experiment: Botrytis cinerea spore (conidia) germination assay; format: cell-based; settings: pure PEA; 14 hours at 4° C.; absorbance 570 nm
Experimental: In this point, the PEA volatile compound effect was tested in B.c. spores germination. The assay consisted in inoculate B.c. spores in 100 μL of malt yeast nutritive media (ML, 0.3% malt and 0.2% yeast extract), using 40 μL of a B.c. spore suspension with a 10^5 spores/mL concentration. Resuspended spores in ML media were transferred to sterile multiwall plates (140 μL/well) and then these plates were put in a hermetic and sealed container during a definite time, in dark and at 4° C. The necessary time to detect maximum germination was experimentally determined by conducting a germination kinetic assay for each B.c. strain. Measurements were done every 2 hours up until 16 hours, thus finding the maximum germination between 14 and 16 hours. The methodology used in the laboratory consisted in a spore fixation/staining process in each well, using trichloroacetic acid and sulphododamyne B, that allowed for a direct correlation between the obtained absorbance values (at 570 nm) with germinated spore number. The first experimental group was assayed without volatile compounds and was used as control (n=4), the experiment was done in sealed hermetic containers at 4° C. for 14 hours (100% of spore germination).

CCCCCC1CCCC(=O)O1 (stereo not drawn) [d-Lac, delta-decalactone]
effect on B.c. radial growth (Botrytis cinerea; 6 days at 4° C.): does not present a statistically significative effect

OCCc1ccccc1 [PEA, phenylethylalcohol]
effect on Botrytis conidia germination (Botrytis cinerea spores): does not inhibit Botrytis conidia germination in the same way that it inhibited micellium growth | effect on B.c. radial growth, statistics (ANOVA, TUKEY, p<0.05) (Botrytis cinerea; 30 and 61 μL doses, all strains, 6 days at 4° C.): statistically significant effect in all of the strains | B.c. growth at higher doses (Botrytis cinerea; doses higher than 61 μL, 6 days): not a measurable growth after 6 days | effect on B.c. radial growth (Botrytis cinerea; 6 days at 4° C.): has an inhibiting effect in all the assayed B.c. strains
